Values joined by “and” are separate entries in the source; they are usually repeats but may differ in a detail not shown here. Equal entries are not always repeated. Toxic doses and inconclusive results are not listed. No stated cut-off is given here; in the data, active means T/C of 150% or more; inactive means T/C below 125%.
System: L1210 leukemia ip in BDF1 mice, survival T/C
Assay: NCI In Vivo Anticancer Drug Screen. Data for tumor model L1210 Leukemia (intraperitoneal) in B6D2F1 (BDF1) mice
Conditions: endpoint: mean survival time, higher = longer survival
How it was run: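 Transplantable tumor model; survival measured in treated vs vehicle control mice. Value = treated/control.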

[1] = dose: 100.0 mg/kg/injection, schedule: Q01DX001 (ip), vehicle: saline
[2] = dose: 200.0 mg/kg/injection, schedule: Q01DX001 (ip), vehicle: saline
[3] = dose: 400.0 mg/kg/injection, schedule: Q01DX001 (ip), vehicle: saline
[4] = dose: 100.0 mg/kg/injection, schedule: Q04DX002 (ip), vehicle: saline
[5] = dose: 200.0 mg/kg/injection, schedule: Q04DX002 (ip), vehicle: saline
[6] = dose: 400.0 mg/kg/injection, schedule: Q04DX002 (ip), vehicle: saline
[7] = dose: 100.0 mg/kg/injection, schedule: Q01DX001 (ip), vehicle: carboxymethylcellulose (CMC)
[8] = dose: 200.0 mg/kg/injection, schedule: Q01DX001 (ip), vehicle: carboxymethylcellulose (CMC)
[9] = dose: 400.0 mg/kg/injection, schedule: Q01DX001 (ip), vehicle: carboxymethylcellulose (CMC)

Measured: T/C

Nc1ncc(CNc2ccc(C(=O)NC(CC(=O)O)C(=O)O)cc2)c(N)n1 (stereo not given)
inactive: dose: 100.0 mg/kg/injection, schedule: Q01DX001 (ip), vehicle: saline with Tween-80 93 % of control | dose: 100.0 mg/kg/injection, schedule: Q01DX009 (ip), vehicle: saline with Tween-80 106 % of control | dose: 100.0 mg/kg/injection, schedule: Q04DX003 (ip), vehicle: saline with Tween-80 93 % of control | dose: 200.0 mg/kg/injection, schedule: Q01DX001 (ip), vehicle: saline with Tween-80 105 % of control | dose: 200.0 mg/kg/injection, schedule: Q01DX009 (ip), vehicle: saline with Tween-80 100 % of control | dose: 200.0 mg/kg/injection, schedule: Q04DX003 (ip), vehicle: saline with Tween-80 97 % of control | dose: 400.0 mg/kg/injection, schedule: Q01DX001 (ip), vehicle: saline with Tween-80 100 % of control | dose: 400.0 mg/kg/injection, schedule: Q01DX009 (ip), vehicle: saline with Tween-80 105 % of control | dose: 400.0 mg/kg/injection, schedule: Q04DX003 (ip), vehicle: saline with Tween-80 98 % of control

Cc1ccc(S(=O)(=O)NCCC(=O)O)cc1
inactive: [1] 93 % of control | [2] 98 % of control | [3] 98 % of control

CN1c2ccccc2C(C)(C)C12C=Cc1ccccc1O2 (stereo not given)
inactive: dose: 25.0 mg/kg/injection, schedule: Q04DX002 (ip), vehicle: gum acacia 111 % of control | dose: 50.0 mg/kg/injection, schedule: Q04DX002 (ip), vehicle: gum acacia 103 % of control | dose: 100.0 mg/kg/injection, schedule: Q04DX002 (ip), vehicle: gum acacia 88 % of control | dose: 200.0 mg/kg/injection, schedule: Q04DX002 (ip), vehicle: gum acacia 94 % of control

CC1(C)CCCC/C1=N\NC(N)=O
inactive: dose: 37.5 mg/kg/injection, schedule: Q01DX009 (ip), vehicle: saline with Tween-80 98 % of control | dose: 75.0 mg/kg/injection, schedule: Q01DX001 (ip), vehicle: other 102 % of control | dose: 75.0 mg/kg/injection, schedule: Q01DX009 (ip), vehicle: saline with Tween-80 96 % of control | dose: 75.0 mg/kg/injection, schedule: Q04DX003 (ip), vehicle: saline sonified 98 % of control | dose: 150.0 mg/kg/injection, schedule: Q01DX001 (ip), vehicle: other 102 % of control | dose: 150.0 mg/kg/injection, schedule: Q01DX009 (ip), vehicle: saline with Tween-80 94 % of control | dose: 150.0 mg/kg/injection, schedule: Q04DX003 (ip), vehicle: saline sonified 87 % of control | dose: 300.0 mg/kg/injection, schedule: Q01DX001 (ip), vehicle: other 102 % of control

CC12CCC(=O)N1C(C(=O)O)CS2 (stereo not given)
inactive: [4] 91 % of control | [5] 102 % of control | [6] 98 % of control

CCOC(=O)CCC(=O)NNc1ccccc1
inactive: dose: 50.0 mg/kg/injection, schedule: Q01DX001 (ip), vehicle: carboxymethylcellulose (CMC) 106 % of control | [7] 100 % of control | [8] 102 % of control | [9] 106 % of control

Cc1ccccc1SC(=O)Nc1cc([N+](=O)[O-])ccc1Cl
inactive: [7] 94 % of control and 90 % of control | dose: 100.0 mg/kg/injection, schedule: Q01DX009 (ip), vehicle: carboxymethylcellulose (CMC) 96 % of control | dose: 100.0 mg/kg/injection, schedule: Q04DX002 (ip), vehicle: carboxymethylcellulose (CMC) 97 % of control and 99 % of control | dose: 100.0 mg/kg/injection, schedule: Q04DX003 (ip), vehicle: carboxymethylcellulose (CMC) 89 % of control | [8] 94 % of control and 88 % of control | dose: 200.0 mg/kg/injection, schedule: Q01DX009 (ip), vehicle: carboxymethylcellulose (CMC) 98 % of control | dose: 200.0 mg/kg/injection, schedule: Q04DX002 (ip), vehicle: carboxymethylcellulose (CMC) 94 % of control and 101 % of control | dose: 200.0 mg/kg/injection, schedule: Q04DX003 (ip), vehicle: carboxymethylcellulose (CMC) 96 % of control and 91 % of control | [9] 97 % of control and 90 % of control | dose: 400.0 mg/kg/injection, schedule: Q01DX009 (ip), vehicle: carboxymethylcellulose (CMC) 94 % of control | dose: 400.0 mg/kg/injection, schedule: Q04DX002 (ip), vehicle: carboxymethylcellulose (CMC) 95 % of control and 101 % of control | dose: 400.0 mg/kg/injection, schedule: Q04DX003 (ip), vehicle: carboxymethylcellulose (CMC) 96 % of control and 92 % of control

C=CCP(C)(=O)CC=C
inactive: [4] 102 % of control | [5] 108 % of control | [6] 94 % of control

CC(C)c1cc(C(C)C)c(S(=O)(=O)C2CC2c2ccccc2)c(C(C)C)c1 (stereo not given)
inactive: [1] 112 % of control | [2] 93 % of control | [3] 91 % of control

S=C(Nc1ccccc1)Nc1ccc(Br)cc1
inactive: dose: 100.0 mg/kg/injection, schedule: Q04DX002 (ip), vehicle: Klucel (hydroxypropylcellulose) (HPC) 101 % of control | dose: 200.0 mg/kg/injection, schedule: Q04DX002 (ip), vehicle: Klucel (hydroxypropylcellulose) (HPC) 105 % of control | dose: 400.0 mg/kg/injection, schedule: Q04DX002 (ip), vehicle: Klucel (hydroxypropylcellulose) (HPC) 97 % of control

Cc1cc(N=O)c(NO)cc1C
inactive: dose: 100.0 mg/kg/injection, schedule: Q01DX009 (ip), vehicle: Klucel (hydroxypropylcellulose) (HPC) 108 % of control | dose: 200.0 mg/kg/injection, schedule: Q01DX009 (ip), vehicle: Klucel (hydroxypropylcellulose) (HPC) 103 % of control | dose: 400.0 mg/kg/injection, schedule: Q01DX009 (ip), vehicle: Klucel (hydroxypropylcellulose) (HPC) 118 % of control

CN1C2CC(=O)CC1C1CC2C1
inactive: dose: 12.5 mg/kg/injection, schedule: Q04DX002 (ip), vehicle: Klucel (hydroxypropylcellulose) (HPC) 98 % of control | dose: 25.0 mg/kg/injection, schedule: Q04DX002 (ip), vehicle: Klucel (hydroxypropylcellulose) (HPC) 94 % of control

COc1ccc(OC)c(COC(=O)c2ccccc2)c1COC(=O)c1ccccc1
inactive: [7] 95 % of control | [8] 101 % of control | [9] 95 % of control

— PubChem BioAssay AID248 (DTP/NCI, 2004)
